Source: PubChem BioAssay AID1963425 (Molecular Pharmacology Branch, DTP, NCI, 2024)

System: 323965-272-R-J2-PDC complex spheroid growth, % test/control
Experiment: Anticancer human tumor 323965-272-R-J2-PDC patient-derived pancreatic carcinoma cell line growth inhibition [Asc]
Conditions: for viability, T/C: stronger effect = lower value; active = viability on the fitted dose curve at most 10% of control; inactive = the rest
How it was run: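 Complex spheroids combining tumor cells with HUVEC endothelial cells and human MSCs, at 37 degrees C, 5% CO2; agents tested alone or combined, half-log dilutions from at or near clinical Cmax, or 10 microM if Cmax unknown.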
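Note: compound exposure lasted 7 days starting three days after spheroid seeding.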
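Throughout, for viability, T/C: 100% = DMSO vehicle control wells with viability set relative to vehicle.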

NC1CCC(NC2CC2c2ccccc2)CC1 (centres undefined) + CNC(C)C(=O)NC1CN(S(=O)(=O)c2cccc(S(=O)(=O)N3CCC4CCC(C(=O)NC(c5ccccc5)c5ccccc5)N4C(=O)C(NC(=O)C(C)NC)C3)c2)CCC2CCC(C(=O)NC(c3ccccc3)c3ccccc3)N2C1=O
inactive: viability, T/C (second compound 0.00316 µM, first compound 0.000316 µM) 96.2% | viability, T/C (second compound 0.00316 µM, first compound 0.001 µM) 91.7% | viability, T/C (second compound 0.00316 µM, first compound 0.00316 µM) 104% | viability, T/C (second compound 0.00316 µM, first compound 0.01 µM) 97% | viability, T/C (second compound 0.00316 µM, first compound 0.0316 µM) 97.6% | viability, T/C (second compound 0.00316 µM, first compound 0.1 µM) 94.2% | viability, T/C (second compound 0.01 µM, first compound 0.000316 µM) 97.6% | viability, T/C (second compound 0.01 µM, first compound 0.001 µM) 86.7% | viability, T/C (second compound 0.01 µM, first compound 0.00316 µM) 95.9% | viability, T/C (second compound 0.01 µM, first compound 0.01 µM) 101% | viability, T/C (second compound 0.01 µM, first compound 0.0316 µM) 99.3% | viability, T/C (second compound 0.01 µM, first compound 0.1 µM) 90.5% | viability, T/C (second compound 0.0316 µM, first compound 0.000316 µM) 106% | viability, T/C (second compound 0.0316 µM, first compound 0.001 µM) 94.9% | viability, T/C (second compound 0.0316 µM, first compound 0.00316 µM) 91.5% | viability, T/C (second compound 0.0316 µM, first compound 0.01 µM) 99.3% | viability, T/C (second compound 0.0316 µM, first compound 0.0316 µM) 97.2% | viability, T/C (second compound 0.0316 µM, first compound 0.1 µM) 97.1% | viability, T/C (second compound 0.1 µM, first compound 0.000316 µM) 95% | viability, T/C (second compound 0.1 µM, first compound 0.001 µM) 88.6% | viability, T/C (second compound 0.1 µM, first compound 0.00316 µM) 87.6% | viability, T/C (second compound 0.1 µM, first compound 0.01 µM) 85.3% | viability, T/C (second compound 0.1 µM, first compound 0.0316 µM) 96.1% | viability, T/C (second compound 0.1 µM, first compound 0.1 µM) 96.7% | viability, T/C (second compound 0.316 µM, first compound 0.000316 µM) 109% | viability, T/C (second compound 0.316 µM, first compound 0.001 µM) 92% | viability, T/C (second compound 0.316 µM, first compound 0.00316 µM) 88.7% | viability, T/C (second compound 0.316 µM, first compound 0.01 µM) 97.5% | viability, T/C (second compound 0.316 µM, first compound 0.0316 µM) 95.9% | viability, T/C (second compound 0.316 µM, first compound 0.1 µM) 91.2% | viability, T/C (second compound 1 µM, first compound 0.000316 µM) 93.5% | viability, T/C (second compound 1 µM, first compound 0.001 µM) 80.2% | viability, T/C (second compound 1 µM, first compound 0.00316 µM) 87% | viability, T/C (second compound 1 µM, first compound 0.01 µM) 87.3% | viability, T/C (second compound 1 µM, first compound 0.0316 µM) 109% | viability, T/C (second compound 1 µM, first compound 0.1 µM) 85.2%
> 0.1 µM: IC50 (curve of first compound, second compound 0.00316 µM) | IC50 (curve of first compound, second compound 0.01 µM) | IC50 (curve of first compound, second compound 0.0316 µM) | IC50 (curve of first compound, second compound 0.1 µM) | IC50 (curve of first compound, second compound 0.316 µM) | IC50 (curve of first compound, second compound 1 µM)

CNC(C)C(=O)NC1CN(S(=O)(=O)c2cccc(S(=O)(=O)N3CCC4CCC(C(=O)NC(c5ccccc5)c5ccccc5)N4C(=O)C(NC(=O)C(C)NC)C3)c2)CCC2CCC(C(=O)NC(c3ccccc3)c3ccccc3)N2C1=O (centres undefined)
inactive: viability, T/C (compound 0.01 µM) 109% [middle of 9 runs] | viability, T/C (compound 0.1 µM) 106% [middle of 9 runs] | viability, T/C (compound 0.316 µM) 100% [middle of 9 runs]
> 1 µM: IC50 (compound alone, run of 11/15/2022) | IC50 (curve of compound)

Cc1nc(N2CCC3(CC2)COC(C)C3N)c(CO)nc1Sc1ccnc(N)c1Cl (centres undefined) + CCN1C(C(=O)NC23CCC(C(=O)O)(CC2)CC3)C(c2cccc(Cl)c2F)C2(C(=O)Nc3cc(Cl)ccc32)C12CCCCC2
1.64 µM: IC50 (curve of first compound, second compound 0.949 µM)
0.929 µM: IC50 (curve of first compound, second compound 3 µM)
> 3 µM: IC50 (curve of first compound, second compound 0.03 µM) | IC50 (curve of first compound, second compound 0.0949 µM)
1.56 µM: IC50 (curve of first compound, second compound 0.00949 µM)
inactive: viability, T/C (second compound 0.00949 µM, first compound 0.00949 µM) 107% | viability, T/C (second compound 0.00949 µM, first compound 0.03 µM) 89% | viability, T/C (second compound 0.00949 µM, first compound 0.0949 µM) 85.4% | viability, T/C (second compound 0.00949 µM, first compound 0.3 µM) 62.7% | viability, T/C (second compound 0.00949 µM, first compound 0.949 µM) 57.3% | viability, T/C (second compound 0.00949 µM, first compound 3 µM) 42.9% | viability, T/C (second compound 0.03 µM, first compound 0.00949 µM) 104% | viability, T/C (second compound 0.03 µM, first compound 0.03 µM) 91.8% | viability, T/C (second compound 0.03 µM, first compound 0.0949 µM) 80.4% | viability, T/C (second compound 0.03 µM, first compound 0.3 µM) 67.8% | viability, T/C (second compound 0.03 µM, first compound 0.949 µM) 59% | viability, T/C (second compound 0.03 µM, first compound 3 µM) 50.4% | viability, T/C (second compound 0.0949 µM, first compound 0.00949 µM) 109% | viability, T/C (second compound 0.0949 µM, first compound 0.03 µM) 84.9% | viability, T/C (second compound 0.0949 µM, first compound 0.0949 µM) 86.1% | viability, T/C (second compound 0.0949 µM, first compound 0.3 µM) 65.3% | viability, T/C (second compound 0.0949 µM, first compound 0.949 µM) 61.7% | viability, T/C (second compound 0.0949 µM, first compound 3 µM) 51.2% | viability, T/C (second compound 0.3 µM, first compound 0.00949 µM) 102% | viability, T/C (second compound 0.3 µM, first compound 0.03 µM) 86.3% | viability, T/C (second compound 0.3 µM, first compound 0.0949 µM) 82.7% | viability, T/C (second compound 0.3 µM, first compound 0.3 µM) 68.6% | viability, T/C (second compound 0.3 µM, first compound 0.949 µM) 54.2% | viability, T/C (second compound 0.3 µM, first compound 3 µM) 44.6% | viability, T/C (second compound 0.949 µM, first compound 0.00949 µM) 105% | viability, T/C (second compound 0.949 µM, first compound 0.03 µM) 95.8% | viability, T/C (second compound 0.949 µM, first compound 0.0949 µM) 88.3% | viability, T/C (second compound 0.949 µM, first compound 0.3 µM) 63.6% | viability, T/C (second compound 0.949 µM, first compound 0.949 µM) 57.8% | viability, T/C (second compound 0.949 µM, first compound 3 µM) 44.2% | viability, T/C (second compound 3 µM, first compound 0.00949 µM) 91.2% | viability, T/C (second compound 3 µM, first compound 0.03 µM) 83.3% | viability, T/C (second compound 3 µM, first compound 0.0949 µM) 71.7% | viability, T/C (second compound 3 µM, first compound 0.3 µM) 60% | viability, T/C (second compound 3 µM, first compound 0.949 µM) 53.6% | viability, T/C (second compound 3 µM, first compound 3 µM) 35.4%
1.7 µM: IC50 (curve of first compound, second compound 0.3 µM)
